Results as given in ChEMBL document CHEMBL1201862, “PubChem BioAssay data set” (2004).
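Each compound was tested at five concentrations against cells in 96-well plates for 48 hours. The concentration for 50% growth inhibition is given as GI50.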 Active and inactive are the calls of the source. Cut-off read from the data, not from the text of the source: active = GI50 up to about 1.1 µM and inactive = higher.

Columns and labels:
Assay in all cases: inhibition of tumour cell growth, NCI panel, 48 h
U-251 = system: U-251
CCRF-CEM = system: CCRF-CEM
TK-10 = system: TK-10
KM12 = system: KM12
OVCAR-3 = system: OVCAR-3
OVCAR-5 = system: OVCAR-5
SW-620 = system: SW-620
UACC-62 = system: UACC-62
MOLT-4 = system: MOLT-4
SNB-19 = system: SNB-19
SN12C = system: SN12C
SF-268 = system: SF-268
RXF 393 = system: RXF 393
HCT-116 = system: HCT-116
SK-OV-3 = system: SK-OV-3
Malme-3M = system: Malme-3M
HT-29 = system: HT-29
SF-539 = system: SF-539
COLO 205 = system: COLO 205
MDA-N = system: MDA-N

Measured: GI50

Oc1ccc2ccccc2c1/N=N/c1ccc(F)cc1
inactive: U-251 > 100 µM | CCRF-CEM > 100 µM | TK-10 > 100 µM | KM12 72.4 µM | OVCAR-3 > 100 µM | OVCAR-5 > 100 µM | SW-620 > 100 µM | UACC-62 > 100 µM | MOLT-4 > 100 µM | SNB-19 > 100 µM | SN12C 42.7 µM | SF-268 > 100 µM | RXF 393 > 100 µM | HCT-116 > 100 µM | SK-OV-3 > 100 µM | Malme-3M > 100 µM | HT-29 > 100 µM | SF-539 > 100 µM | COLO 205 > 100 µM

CCOC(=O)c1c(SC(=O)/C=C/c2ccccc2)n(-c2ccccc2)c(=S)n(-c2ccccc2)c1=O
inactive: U-251 > 100 µM | CCRF-CEM > 100 µM | TK-10 > 100 µM | KM12 > 100 µM | OVCAR-3 > 100 µM | OVCAR-5 > 100 µM | SW-620 > 100 µM | UACC-62 > 100 µM | MOLT-4 > 100 µM | SNB-19 > 100 µM | SN12C > 100 µM | SF-268 > 100 µM | RXF 393 > 100 µM | HCT-116 > 100 µM | SK-OV-3 > 100 µM | Malme-3M > 100 µM | HT-29 > 100 µM | SF-539 > 100 µM | COLO 205 > 100 µM

Cc1cc(OCc2nnc3sc(NC(=O)c4ccccc4)nn23)ccc1Cl
inactive: U-251 33.3 µM | CCRF-CEM 43.3 µM | TK-10 62.4 µM | KM12 21.5 µM | OVCAR-3 30.7 µM | OVCAR-5 56.8 µM | SW-620 > 100 µM | UACC-62 33.3 µM | MOLT-4 55.5 µM | SNB-19 33.9 µM | SN12C 30.8 µM | SF-268 45 µM | RXF 393 30.6 µM | HCT-116 28.7 µM | SK-OV-3 59.6 µM | Malme-3M 21.4 µM | HT-29 38.4 µM | SF-539 > 100 µM | COLO 205 53.5 µM

CC(C)(C)C(=O)C1CC(=O)c2ccccc2C1=O (centres undefined)
inactive: U-251 34 µM | CCRF-CEM 33.4 µM | TK-10 34.1 µM | KM12 31.8 µM | OVCAR-3 24.3 µM | OVCAR-5 37.1 µM | SW-620 32.4 µM | UACC-62 25.8 µM | MOLT-4 27.8 µM | SNB-19 24 µM | SN12C 28.2 µM | SF-268 21.8 µM | RXF 393 22.2 µM | HCT-116 21.4 µM | SK-OV-3 27.1 µM | Malme-3M 16.3 µM | SF-539 34.3 µM | COLO 205 31.8 µM

CCC1C(c2cccc(OC)c2O)c2cc3c(cc2OC1N1CCCC1)OCO3 (centres undefined)
inactive: CCRF-CEM 12.6 µM | TK-10 16.4 µM | KM12 12 µM | OVCAR-3 13.8 µM | OVCAR-5 20.1 µM | SW-620 12.2 µM | UACC-62 17.5 µM | MOLT-4 12.8 µM | MDA-N 3.24 µM | SNB-19 14.6 µM | SN12C 18.1 µM | SF-268 16.7 µM | HCT-116 8.47 µM | HT-29 16.5 µM | SF-539 12.2 µM | COLO 205 > 10 µM

OCCSCCCSCCO
inactive: U-251 > 100 µM | CCRF-CEM 36.8 µM | TK-10 > 100 µM | KM12 > 100 µM | OVCAR-3 > 100 µM | OVCAR-5 > 100 µM | SW-620 > 100 µM | UACC-62 > 100 µM | MOLT-4 32.1 µM | MDA-N > 100 µM | SNB-19 > 100 µM | SN12C > 100 µM | SF-268 > 100 µM | HCT-116 > 100 µM | SK-OV-3 > 100 µM | HT-29 > 100 µM | SF-539 > 100 µM | COLO 205 > 100 µM

CCOc1ccc(NC(=O)/C(CC(=O)c2c[n+]([O-])c3ccccc3[n+]2[O-])=N\OCCCc2ccccc2)cc1
inactive: U-251 > 100 µM | CCRF-CEM 42.2 µM | TK-10 > 100 µM | KM12 > 100 µM | OVCAR-3 > 100 µM | OVCAR-5 > 100 µM | SW-620 > 100 µM | UACC-62 > 100 µM | MOLT-4 > 100 µM | SNB-19 > 100 µM | SN12C > 100 µM | SF-268 > 100 µM | RXF 393 > 100 µM | HCT-116 > 100 µM | SK-OV-3 > 100 µM | Malme-3M > 100 µM | HT-29 > 100 µM | SF-539 > 100 µM | COLO 205 > 100 µM

COc1cc2ccc3c4ccccc4cnc3c2cc1OC
inactive: U-251 > 100 µM | CCRF-CEM > 100 µM | TK-10 > 100 µM | KM12 > 100 µM | OVCAR-3 > 100 µM | OVCAR-5 > 100 µM | SW-620 > 100 µM | UACC-62 > 100 µM | MOLT-4 93.1 µM | SNB-19 > 100 µM | SN12C > 100 µM | SF-268 > 100 µM | RXF 393 > 100 µM | HCT-116 > 100 µM | SK-OV-3 > 100 µM | Malme-3M > 100 µM | HT-29 > 100 µM | SF-539 > 100 µM | COLO 205 > 100 µM

C/C(=N/NC(=O)C[N+](C)(C)C)C(CN(C)C)C(=O)Nc1ccccc1 (centres undefined)
inactive: U-251 > 100 µM | CCRF-CEM > 100 µM | TK-10 > 100 µM | KM12 > 100 µM | OVCAR-3 > 100 µM | OVCAR-5 > 100 µM | SW-620 > 100 µM | UACC-62 > 100 µM | MOLT-4 > 100 µM | SNB-19 > 100 µM | SN12C > 100 µM | SF-268 > 100 µM | RXF 393 > 100 µM | HCT-116 > 100 µM | SK-OV-3 > 100 µM | Malme-3M > 100 µM | HT-29 > 100 µM | SF-539 > 100 µM | COLO 205 > 100 µM

COc1cccc2[s+]snc12
inactive: U-251 > 10 µM | CCRF-CEM > 10 µM | TK-10 > 100 µM | KM12 59.6 µM | OVCAR-3 > 100 µM | OVCAR-5 > 100 µM | SW-620 29.4 µM | UACC-62 25.1 µM | MOLT-4 29.7 µM | SNB-19 50.6 µM | SN12C 35.5 µM | SF-268 34.1 µM | RXF 393 67 µM | HCT-116 45.4 µM | SK-OV-3 > 100 µM | Malme-3M > 100 µM | HT-29 96.8 µM | SF-539 35.8 µM | COLO 205 > 100 µM

CC1(C)COC(c2cccnc2/C=N/O)=N1
inactive: U-251 > 100 µM | CCRF-CEM > 100 µM | TK-10 > 100 µM | KM12 > 100 µM | OVCAR-3 > 100 µM | OVCAR-5 > 100 µM | SW-620 67.8 µM | UACC-62 > 100 µM | MOLT-4 > 100 µM | SNB-19 > 100 µM | SN12C > 100 µM | SF-268 > 100 µM | RXF 393 > 100 µM | HCT-116 > 100 µM | SK-OV-3 > 100 µM | Malme-3M > 100 µM | HT-29 > 100 µM | SF-539 > 100 µM | COLO 205 > 100 µM
